In publication PMC2682793, “Enhanced muscarinic M1 receptor gene expression in the corpus striatum of streptozotocin-induced diabetic rats” (Journal of Biomedical Science, 2009):

Molecular target: T1, total muscarinic receptor
T1 construct: gene Chrm1
Assay type: biochemical, Rattus norvegicus
Details: control rats; striatal membranes; 1 nM [3H]QNB; Tris-HCl-EDTA pH 7.4; 22°C; one-site fit; unit not printed (concentrations in M); logarithmic value; EC50 stated to be same as IC50
Excerpt: [3H]QNB displacement, filtration on total muscarinic receptor

## CN1[C@@H]2CC[C@H]1CC(OC(=O)C(CO)c1ccccc1)C2 (stereo partly shown) [atropine]
  Log (EC50): -7.076
